# Laboratory results as given in patent US11111238B2, “Coumarin derivatives, processes for their preparation and uses thereof for the treatment of cancer” (Lead Discovery Center GmbH, priority 2017, dated 2021).
# Assays:
# HRT-18 (colon) = assay: CellTiter GLO viability assay, HRT-18; type: cell-based; settings: Homo sapiens, 144 h, read-out: IC50 (μM) incubation time 144 h
# Method: (§1) The CellTiter-Glo Luminescent Cell Viability Assay (Promega) is a homogeneous method of determining the number of viable cells in culture. It is based on quantification of ATP, indicating the presence of metabolically active cells.
# (§2) Cells were seeded on day 1 at cell numbers that assure assay linearity and optimal signal intensity. After incubation for 3 h in humidified chambers at 37° C./5% CO2 compounds/DMSO were added at different concentrations. […] Cells treated with the compound vehicle DMSO were used as positive controls and cells treated with 10 μM Staurosporine served as negative controls. […] Thereon, mixture and assay plates were equilibrated at room temperature for 20 min. Equal volumes of the reagent-medium-mixture was added to the volume of culture medium present in each well.
# (§3) The plates were mixed at ˜200 rpm for 2 minutes on an orbital shaker. The microplates were then incubated at room temperature for 10 minutes for stabilization of the luminescent signal. Following incubation the luminescence is recorded on a Victor microplate reader (Perkin Elmer) using 200 ms integration time. The data were then analyzed with Excel using the XLFIT Plugin (dose response Fit 205) for IC50-determination. As quality control the Z′-factor was calculated from 16 positive and negative control values. Only assay results showing a Z′-factor≥0.5 were used for further analysis.
# HEC-59 (endometrial) = assay: CellTiter GLO viability assay, HEC-59; type: cell-based; settings: 144 h, read-out: IC50 (μM) incubation time 144 h
# Method: as §1, §2, §3
# NCI-H1299 (lung) = assay: CellTiter GLO viability assay, NCI-H1299; type: cell-based; settings: Homo sapiens, 144 h, read-out: IC50 (μM) incubation time 144 h
# Method: as §1, §2, §3
# SW403 (colon) = assay: CellTiter GLO viability assay, SW403; type: cell-based; settings: Homo sapiens, SW-403, 144 h, read-out: IC50 (μM) incubation time 144 h
# Method: as §1
# as §2, with “Cells were seeded on day 1 at cell numbers that assure assay linearity and optimal signal intensity.” left out
# as §3
# NCI-H23 (lung) = assay: CellTiter GLO viability assay, NCI-H23; type: cell-based; settings: for IC50: Homo sapiens, NCI-H23 (lung), 144 h, read-out: IC50 (μM) incubation time 144 h; for sensitivity of the cell line (in words): NCl-H23
# Method: as §1, §2, §3
# SW948 (colon) = assay: CellTiter GLO viability assay, SW948; type: cell-based; settings: Homo sapiens, 144 h, read-out: IC50 (μM) incubation time 144 h
# Method: as §1, §2, §3
# [1] = test system: mitochondrial transcription (7S RNA) in HeLa cells; assay: Quantitative real time-PCR assay of inhibition of mitochondrial transcription (cellular qPCR assay IMT); type: cell-based; settings: Homo sapiens, 4 h compound incubation, qRT-PCR according to Example 5, activity class
# Outline: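 HeLa cells were exposed 4 h to compound dilution series or DMSO. Mitochondrial 7S RNA, with POLRMT for nuclear transcription, was measured by TaqMan qRT-PCR, normalised to TBP. Biological triplicates were analysed by ΔΔCt and expressed as Rq % (2^-ΔΔCt).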
# [2] = target: mitochondrial RNA-polymerase (POLRMT) (Mus musculus, UniProt Q8BKF1); assay: Homogeneous TR-FRET assay for mitochondrial transcription activity; type: biochemical; settings: homogeneous TR-FRET assay according to Example 4; activity class
# Sequence of mitochondrial RNA-polymerase (POLRMT) (Q8BKF1 42-1207): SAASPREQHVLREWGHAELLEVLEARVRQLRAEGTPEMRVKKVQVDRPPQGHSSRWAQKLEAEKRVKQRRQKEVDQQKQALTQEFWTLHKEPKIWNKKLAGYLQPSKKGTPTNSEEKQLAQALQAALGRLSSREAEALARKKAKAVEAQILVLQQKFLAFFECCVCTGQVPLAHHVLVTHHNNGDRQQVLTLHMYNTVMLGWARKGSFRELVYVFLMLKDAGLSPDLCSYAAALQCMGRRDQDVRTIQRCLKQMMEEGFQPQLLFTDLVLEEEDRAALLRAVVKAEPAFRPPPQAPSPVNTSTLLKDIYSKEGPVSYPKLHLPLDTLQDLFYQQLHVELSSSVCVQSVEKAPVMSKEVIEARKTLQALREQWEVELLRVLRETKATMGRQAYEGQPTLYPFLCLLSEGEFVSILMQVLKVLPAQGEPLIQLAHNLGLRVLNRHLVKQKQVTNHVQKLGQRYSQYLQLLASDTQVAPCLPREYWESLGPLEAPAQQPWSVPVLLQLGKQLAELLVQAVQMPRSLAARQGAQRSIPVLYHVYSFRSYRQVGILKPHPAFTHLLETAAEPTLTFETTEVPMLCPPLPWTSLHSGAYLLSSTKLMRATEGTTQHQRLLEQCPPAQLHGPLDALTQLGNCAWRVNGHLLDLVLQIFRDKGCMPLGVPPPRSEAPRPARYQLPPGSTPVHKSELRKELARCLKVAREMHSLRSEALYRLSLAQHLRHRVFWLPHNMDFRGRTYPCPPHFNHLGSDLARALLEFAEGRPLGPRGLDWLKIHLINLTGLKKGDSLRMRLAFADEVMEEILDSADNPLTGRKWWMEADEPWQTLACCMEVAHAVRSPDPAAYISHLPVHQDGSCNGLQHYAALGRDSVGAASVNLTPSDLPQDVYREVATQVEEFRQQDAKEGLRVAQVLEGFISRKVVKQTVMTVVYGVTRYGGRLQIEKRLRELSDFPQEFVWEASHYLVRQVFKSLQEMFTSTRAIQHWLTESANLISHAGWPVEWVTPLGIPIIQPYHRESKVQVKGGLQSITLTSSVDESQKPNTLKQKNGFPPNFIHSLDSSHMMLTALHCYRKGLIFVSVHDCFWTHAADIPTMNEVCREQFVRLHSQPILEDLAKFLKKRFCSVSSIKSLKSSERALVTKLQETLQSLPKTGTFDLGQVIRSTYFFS
# Outline: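 Mouse POLRMT, TFAM and TFB2M with linearized pUC-LSP template in 10 mM Tris-HCl pH 7.5, 10 mM MgCl2, 40 mM NaCl; compounds at 10 μM or serial dilution, 10 min RT preincubation. Started with 500 μM each […], 2 h RT; 407 bp RNA product detected by hybridized Eu-cryptate/ATTO647N probe TR-FRET (ex 340, em 665 nm).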
# NCI-H596 (lung) = assay: CellTiter GLO viability assay, NCI-H596; type: cell-based; settings: Homo sapiens, 144 h, read-out: IC50 (μM) incubation time 144 h
# Method: as §1, §2, §3
# CA-46 (lymphoma) = assay: CellTiter GLO viability assay, CA-46; type: cell-based; settings: Homo sapiens, CA46, 144 h, read-out: IC50 (μM) incubation time 144 h
# Method: as §1
# as §2, with “Cells were seeded on day 1 at cell numbers that assure assay linearity and optimal signal intensity.” left out
# as §3
# SW48 (colon) = assay: CellTiter GLO viability assay, SW48; type: cell-based; settings: Homo sapiens, 144 h, read-out: IC50 (μM) incubation time 144 h
# Method: as §1, §2, §3
# [3] = test system: human DLD-1 colon carcinoma xenograft; assay: Therapeutic effect on human DLD-1 colon carcinoma xenograft in nude mice; settings: 30 mg/kg p.o. QD × 28 days, positive control
# Method: DLD-1 colon carcinoma cells (5×10^6 cells in 100 μL of PBS/Matrigel), isolated during exponential growth phase from in vitro cell culture, were transplanted s.c. into each female BALB/c nude mouse at day 0. Mice were kept under strictly controlled and standardized barrier conditions in IVC.
# Sorafenib) (Nexavar®, which is an approved multi-kinase inhibitor/cytostatic from Bayer A G, was used as a positive control. Body weight and tumor volume (TV) were monitored two to three times per week.
# Mice of groups 3, 4 and 5 were treated again at the end of the study period and blood samples were taken to generate plasma 1 h prior and 1 h post treatment. In addition, tumor and tissue samples were isolated, divided into two parts and snap frozen in liquid nitrogen. Mice of groups 1-5 were sacrificed at day 39. Gross autopsy was performed from all mice.
Compound,IC50 [1] [nM],IC50 [2] [nM],also measured
"Cc1ccccc1-c1cc(=O)oc2cc(OC(C)C(=O)N(C)C)ccc12 (stereo not shown) [Compound 38, N,N-dimethyl-2-[4-(o-tolyl)-2-oxo-chromen-7-yl]oxy-propanamide]",< 10,< 20,IC50 (HRT-18 (colon)): ≤ 0.1 µM; IC50 (HEC-59 (endometrial)): > 10 µM; IC50 (NCI-H1299 (lung)): 0.1 to 1 µM; IC50 (SW403 (colon)): 0.1 to 1 µM; IC50 (NCI-H23 (lung)): 1 to 10 µM; sensitivity of the cell line (in words) (NCI-H23 (lung)): moderate sensitivity; IC50 (SW948 (colon)): 0.1 to 1 µM; IC50 (NCI-H596 (lung)): 1 to 10 µM; IC50 (CA-46 (lymphoma)): 0.1 to 1 µM; IC50 (SW48 (colon)): 1 to 10 µM
"CC(Oc1ccc2c(-c3ccc(F)cc3Cl)cc(=O)oc2c1)C(=O)N1CCC[C@H](C(=O)O)C1 (stereo partly drawn) [Compound 47, (3S)-1-(2-((4-(2-chloro-4-fluorophenyl)-2-oxo-2H-chromen-7-yl)oxy)propanoyl)piperidine-3-carboxylic acid]",< 10,< 20,IC50 (HRT-18 (colon)): ≤ 0.1 µM; IC50 (HEC-59 (endometrial)): > 10 µM; IC50 (NCI-H1299 (lung)): 0.1 to 1 µM; IC50 (SW403 (colon)): 0.1 to 1 µM; IC50 (NCI-H23 (lung)): > 10 µM; sensitivity of the cell line (in words) (NCI-H23 (lung)): resistant; IC50 (SW948 (colon)): 0.1 to 1 µM; IC50 (NCI-H596 (lung)): 1 to 10 µM; IC50 (CA-46 (lymphoma)): 0.1 to 1 µM; IC50 (SW48 (colon)): 0.1 to 1 µM
"C[C@@H](Oc1ccc2c(-c3ccc(F)cc3Cl)cc(=O)oc2n1)C(=O)N1CCC[C@H](C(=O)O)C1 [Compound 173, (3S)-1-[(2R)-2-[4-(2-chloro-4-fluoro-phenyl)-2-oxo-pyrano[2,3-b]pyridin-7-yl]oxypropanoyl]piperidine-3-carboxylic acid]",50 to 500,20 to 100,–
"Cc1ccsc1-c1cc(=O)oc2cc(O[C@H](C)C(=O)N3CCC[C@H](C(=O)O)C3)ccc12 [Compound 174, (3S)-1-[(2R)-2-[4-(3-methyl-2-thienyl)-2-oxo-chromen-7-yl]oxypropanoyl]piperidine-3-carboxylic acid]",< 10,20 to 100,–
"Cc1ccsc1-c1cc(=O)oc2cc(O[C@H](C)C(=O)N3CCCCC3)ccc12 [Compound 177, 7-[(1R)-1-methyl-2-oxo-2-(1-piperidyl)ethoxy]-4-(3-methyl-2-thienyl)chromen-2-one]",< 10,20 to 100,–
"Cc1ccsc1-c1cc(=O)oc2cc(O[C@H](C)C(=O)NC(C)C)ccc12 [Compound 178, (2R)-N-isopropyl-2-[4-(3-methyl-2-thienyl)-2-oxo-chromen-7-yl]oxy-propanamide]",10 to 50,100 to 1000,–
"Cc1ccsc1-c1cc(=O)oc2cc(O[C@H](C)C(=O)N(C)C)ccc12 [Compound 179, (2R)-N,N-dimethyl-2-[4-(3-methyl-2-thienyl)-2-oxo-chromen-7-yl]oxy-propanamide]",10 to 50,100 to 1000,–
"CCOC(=O)C[C@H]1CCCN(C(=O)[C@@H](C)Oc2ccc3c(-c4sccc4C)cc(=O)oc3c2)C1 [Compound 180, ethyl 2-[(3R)-1-[(2R)-2-[4-(3-methyl-2-thienyl)-2-oxo-chromen-7-yl]oxypropanoyl]-3-piperidyl]acetate]",< 10,20 to 100,–
"Cc1ccsc1-c1cc(=O)oc2cc(O[C@H](C)C(=O)N3CCC[C@H](CC(=O)O)C3)ccc12 [Compound 181, 2-[(3R)-1-[(2R)-2-[4-(3-methyl-2-thienyl)-2-oxo-chromen-7-yl]oxypropanoyl]-3-piperidyl]acetic acid]",10 to 50,20 to 100,–
"Cc1cscc1-c1cc(=O)oc2cc(O[C@H](C)C(=O)N3CCC[C@H](C(=O)O)C3)ccc12 [Compound 182, (3S)-1-[(2R)-2-[4-(4-methyl-3-thienyl)-2-oxo-chromen-7-yl]oxypropanoyl]piperidine-3-carboxylic acid]",< 10,< 20,–
"Cc1cscc1-c1cc(=O)oc2cc(O[C@H](C)C(=O)N3CCCCC3)ccc12 [Compound 183, 7-[(1R)-1-methyl-2-oxo-2-(1-piperidyl)ethoxy]-4-(4-methyl-3-thienyl)chromen-2-one]",< 10,< 20,–
"CNC(=O)c1cc(Oc2ccc(NC(=O)Nc3ccc(Cl)c(C(F)(F)F)c3)cc2)ccn1 [Sorafenib, reference compound]",–,–,body weight loss [3]: severe body weight loss
